In data set [1] the test system is MC-38. Briefly: Antitumor activity against mouse MC38 cells allografted in C57BL6 mouse assessed as decrease in Il10 mRNA expression at 10 to 20 mg/kg, po administered daily for 2 weeks by qPCR analysis. In kind it is functional, organism-based. The following applies: dose 10-20 mg/kg. (In qPCR the cycle at which signal appears reflects the starting amount.)
The subject of data set [2] is MC-38. Briefly: Antitumor activity against mouse MC38 cells allografted in C57BL6 mouse assessed as reduction in CSF-1R phosphorylation in tumor tissue at 5 to 10 mg/kg, po administered daily for 2 weeks by Western blot analysis. In kind it is functional, organism-based. The following applies: dose 5-10 mg/kg. For orientation: Immunoblotting shows a protein as a band on a membrane.

Data set [3] has as its system THP-1. Briefly: Induction of conversion of M2-macrophages to the M1 phenotype in CM of HCT116 cells treated […]-differentiated human THP-1 cells assessed as down regulation of Arg1 mRNA expression at 30 to 100 nM incubated for 24 hrs by qPCR analysis. The class given is functional, cell-based. As to conditions: dose 30-100 nM.
The subject of data set [4] is Mus musculus. Briefly: Toxicity in C57BL/6 mouse allografted with mouse MC38 cells assessed as lung damage at 5 to 20 mg/kg, po administered every day for 2 weeks by histopathological analysis. The class given is organism-based, MC-38. The following applies: in vivo, 336 h, dose 5-20 mg/kg.
The test system of data set [5] is MC-38. The data set can be described thus: Antitumor activity against mouse MC38 cells allografted in C57BL6 mouse assessed as reduction in AKT phosphorylation in tumor tissue at 5 to 10 mg/kg, po administered daily for 2 weeks by Western blot analysis. In kind it is functional, organism-based. As to conditions: dose 5-10 mg/kg.
In data set [6] the test system is BMDM. The data set can be described thus: Induction of conversion of M2-macrophages to the M1 phenotype in CM of MC38 cells treated C57BL/6 mouse BMDM cells assessed as down regulation of Il10 mRNA expression at 30 to 100 nM preincubated with culture medium of MC38 cells for 24 hrs followed by compound addition and measured after 24 hrs by qPCR analysis. The class given is functional, cell-based. The following applies: dose 30-100 nM.

Data set [7] concerns THP-1. Briefly: Induction of conversion of M2-macrophages to the M1 phenotype in CM of HCT116 cells treated […]-differentiated human THP-1 cells assessed as upregulation of Il12 mRNA expression at 30 to 100 nM incubated for 24 hrs by qPCR analysis. In kind it is functional, cell-based. The following applies: dose 30-100 nM.
In data set [8] the test system is MC-38. Briefly: Antitumor activity against mouse MC38 cells allografted in C57BL6 mouse assessed as decrease in Retnla mRNA expression at 10 to 20 mg/kg, po administered daily for 2 weeks by qPCR analysis. The following applies: dose 10-20 mg/kg. The class given is functional, organism-based.
Data set [9] deals with BMDM. Briefly: Induction of conversion of M2-macrophages to the M1 phenotype in CM of MC38 cells treated C57BL/6 mouse BMDM cells assessed as down regulation of Vegf mRNA expression at 30 to 100 nM preincubated with culture medium of MC38 cells for 24 hrs followed by compound addition and measured after 24 hrs by qPCR analysis. In kind it is functional, cell-based. As to conditions: dose 30-100 nM.

Data set [10] has as its system Mus musculus. The data set can be described thus: Toxicity in C57BL/6 mouse allografted with mouse MC38 cells assessed as weight loss at 5 to 20 mg/kg, po administered every day for 2 weeks. In kind it is organism-based, MC-38. As to conditions: in vivo, 336 h, dose 5-20 mg/kg.
A further data set has as its system HCT-116. Briefly: Antitumor activity against human HCT-116 cells xenografted in nude BALB/c mouse assessed as reduction in tumor weight at 5 to 20 mg/kg, po administered daily for 2 weeks. In kind it is functional, organism-based. As to conditions: dose 5-20 mg/kg. (In xenograft studies the graft and the host belong to different species.)
Data set [11] concerns MC-38. Briefly: Antitumor activity against mouse MC38 cells allografted in C57BL6 mouse assessed as decrease in Arg1 mRNA expression at 10 to 20 mg/kg, po administered daily for 2 weeks by qPCR analysis. The class given is functional, organism-based. As to conditions: dose 10-20 mg/kg.
The target in data set [12] is T1, Macrophage colony-stimulating factor 1 receptor (Mus musculus, UniProt P09581).
T1 sequence (P09581 whole entry): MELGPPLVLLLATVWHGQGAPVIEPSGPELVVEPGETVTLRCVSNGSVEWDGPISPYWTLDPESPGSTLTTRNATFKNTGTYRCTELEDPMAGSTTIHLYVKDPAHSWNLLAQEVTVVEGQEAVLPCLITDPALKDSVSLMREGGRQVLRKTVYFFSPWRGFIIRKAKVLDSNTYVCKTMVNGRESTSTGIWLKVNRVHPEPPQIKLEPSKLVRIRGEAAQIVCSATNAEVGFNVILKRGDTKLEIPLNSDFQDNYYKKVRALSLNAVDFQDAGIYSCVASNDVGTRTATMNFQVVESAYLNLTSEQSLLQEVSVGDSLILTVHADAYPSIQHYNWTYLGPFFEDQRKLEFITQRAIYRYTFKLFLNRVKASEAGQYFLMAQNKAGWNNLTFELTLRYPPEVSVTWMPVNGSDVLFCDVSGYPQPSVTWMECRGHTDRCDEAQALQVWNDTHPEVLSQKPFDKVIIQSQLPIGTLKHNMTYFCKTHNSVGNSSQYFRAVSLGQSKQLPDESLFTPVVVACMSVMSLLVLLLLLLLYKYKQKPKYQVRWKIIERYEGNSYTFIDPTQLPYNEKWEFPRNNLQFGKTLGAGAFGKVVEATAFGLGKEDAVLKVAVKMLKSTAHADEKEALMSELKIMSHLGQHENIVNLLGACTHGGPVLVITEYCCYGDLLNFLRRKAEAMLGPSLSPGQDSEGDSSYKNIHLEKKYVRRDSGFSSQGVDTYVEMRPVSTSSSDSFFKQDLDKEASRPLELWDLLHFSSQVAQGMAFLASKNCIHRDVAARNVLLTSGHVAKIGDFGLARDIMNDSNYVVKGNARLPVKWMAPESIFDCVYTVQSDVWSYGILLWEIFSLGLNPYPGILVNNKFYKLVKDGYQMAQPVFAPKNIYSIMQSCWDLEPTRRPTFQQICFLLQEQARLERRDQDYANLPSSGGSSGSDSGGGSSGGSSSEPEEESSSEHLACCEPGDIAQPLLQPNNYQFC
The data set can be described thus: Binding affinity to CSF-1R in C57BL/6 mouse BMDM cells assessed as dissociation constant by SPR assay.

Data set [13] relates to BMDM. The data set can be described thus: Induction of conversion of M2-macrophages to the M1 phenotype in CM of MC38 cells treated C57BL/6 mouse BMDM cells assessed as upregulation of Nos2 mRNA expression at 30 to 100 nM preincubated with culture medium of MC38 cells for 24 hrs followed by compound addition and measured after 24 hrs by qPCR analysis. In kind it is functional, cell-based. As to conditions: dose 30-100 nM.

The test system of data set [14] is BMDM. Briefly: Induction of conversion of M2-macrophages to the M1 phenotype in CM of MC38 cells treated C57BL/6 mouse BMDM cells assessed as upregulation of Tnf mRNA expression at 30 to 100 nM preincubated with culture medium of MC38 cells for 24 hrs followed by compound addition and measured after 24 hrs by qPCR analysis. The class given is functional, cell-based. The following applies: dose 30-100 nM.

For data set [15], the system named is THP-1. Briefly: Induction of conversion of M2-macrophages to the M1 phenotype in CM of HCT116 cells treated […]-differentiated human THP-1 cells assessed as upregulation of Il6 mRNA expression at 30 to 100 nM incubated for 24 hrs by qPCR analysis. The class given is functional, cell-based. The following applies: dose 30-100 nM.
The test system of data set [16] is MC-38. Briefly: Antitumor activity against mouse MC38 cells allografted in C57BL6 mouse assessed as increase in Nos2 mRNA expression at 10 to 20 mg/kg, po administered daily for 2 weeks by qPCR analysis. The following applies: dose 10-20 mg/kg. In kind it is functional, organism-based.
The subject of data set [17] is THP-1. Briefly: Induction of conversion of M2-macrophages to the M1 phenotype in CM of HCT116 cells treated […]-differentiated human THP-1 cells assessed as down regulation of Retnla mRNA expression at 30 to 100 nM incubated for 24 hrs by qPCR analysis. In kind it is functional, cell-based. The following applies: dose 30-100 nM.

Activity calls are given as the source filed them. No cut-off for these calls is given here.

As usually defined, the Kd is the concentration at which binding is half-saturated. For the molecule `Cc1[nH]c(/C=C2\C(=O)Nc3cc(NC(=O)Nc4cc(C(C)(C)C)on4)ccc32)c(C)c1NC(=O)CN1CCN(C)CC1`, the result in the data set on MC-38 [1], in the data set with MC-38 [2], in the data set with THP-1 [3], in the data set with MC-38 [5], in the data set on BMDM [6] and with THP-1 [7] was Active. The result in the data set on MC-38 [8], with BMDM [9], in the data set on MC-38 [11], in the data set with BMDM [13], in the data set with BMDM [14] and in the data set on THP-1 [15] was Active. Further, the outcome in the data set on MC-38 [16] and with THP-1 [17] was Active. Besides, the Activity result with Mus musculus [4] and in the data set on Mus musculus [10] was “Non-Toxic” throughout. In addition, in the data set on HCT-116, the result was inactive. In addition, in [12], the Kd stood at 3.4 nM.

Source of the values: ChEMBL document CHEMBL5055668 (J Med Chem, 2021).
